# Assay results taken from patent US20120029187A1, “HALOALKYLSULFONANILIDE DERIVATIVE” (Nissan Chemical Industries, Ltd., priority 2009, published 2012).
# Experiments:
# Assay type in all cases: in vivo
# water foxtail [1] = assay: Test Example 4: herbicidal effect in foliage treatment; conditions: dose 3.2 g/a
# Procedure, shortened: (§1)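 Foliar spray, post-emergence: 14-day-old greenhouse plants (25–30° C, diluvial soil) treated with water-diluted EC at set g/a doses; visual herbicidal score at 3 wk post-application.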
# velvetleaf [2] = assay: as above; conditions: dose 3.2 g/a
# Procedure, shortened: as §1
# large crabgrass [3] = assay: as above; conditions: dose 3.2 g/a
# Procedure, shortened: as §1
# beadstraw [4] = assay: as above; conditions: dose 3.2 g/a
# Procedure, shortened: as §1
# barnyardgrass [5] = assay: as above; conditions: dose 3.2 g/a
# Procedure, shortened: as §1
# common chickweed [6] = assay: as above; conditions: dose 3.2 g/a
# Procedure, shortened: as §1
# common ragweed [7] = assay: as above; conditions: dose 3.2 g/a
# Procedure, shortened: as §1
# common lambsquater [8] = assay: as above; conditions: dose 3.2 g/a
# Procedure, shortened: as §1
# posumbu knotweed = assay: as above; conditions: dose 3.2 g/a
# Procedure, shortened: as §1
# giant foxtail [9] = assay: as above; conditions: dose 3.2 g/a
# Procedure, shortened: as §1
# Italian ryegrass [10] = assay: as above; conditions: dose 3.2 g/a
# Procedure, shortened: as §1
# wild oat [11] = assay: as above; conditions: dose 3.2 g/a
# Procedure, shortened: as §1
# redroot pigweed [12] = assay: as above; conditions: dose 3.2 g/a
# Procedure, shortened: as §1
# bulrush [13] = assay: Test Example 1: herbicidal effects in preemergence treatment under submerged conditions; conditions: dose 2.52 g/a
# Procedure, shortened: (§2)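 Submerged conditions, 4 cm water over alluvial soil. Weeds sown and 2.5-leaf rice transplanted; compound applied preemergence to water surface, doses in g per are. Greenhouse, 25 to 30° C., three weeks, then 0–5 mortality rating.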
# ducksalad [14] = assay: as above; conditions: dose 2.52 g/a
# Procedure, shortened: as §2
# barnyardgrass [15] = assay: as above; conditions: dose 2.52 g/a
# Procedure, shortened: as §2
# bulrush [16] = assay: Test Example 2: herbicidal effects during the vegetation period under submerged conditions; conditions: treatment during the vegetation period under submerged conditions; dose 2.52 g/a
# Procedure, shortened: (§3)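 Barnyardgrass, bulrush and ducksalad were co-sown in alluvial soil flooded to 4 cm and grown in a greenhouse at 25 to 30° C. At the 1- or 2-leaf stage, water-diluted emulsifiable concentrates went onto the water surface at set doses (g/a). Herbicidal effect was scored three weeks later on a graded scale.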
# ducksalad [17] = assay: as above; conditions: treatment during the vegetation period under submerged conditions; dose 2.52 g/a
# Procedure, shortened: as §3
# barnyardgrass [18] = assay: as above; conditions: treatment during the vegetation period under submerged conditions; dose 2.52 g/a
# Procedure, shortened: as §3
# transplanted rice = assay: Test Example 1: preemergence treatment under submerged conditions, effect on crop; conditions: dose 2.52 g/a
# Procedure, shortened: as §2
# water foxtail [19] = assay: Test Example 3: herbicidal effects in soil treatment; conditions: dose 3.2 g/a
# Procedure, shortened: (§4)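 Seeds were sown in sterilized diluvial soil and covered with about 1.5 cm of soil. Compounds, formulated as emulsifiable concentrates and diluted with water, were sprayed evenly over the soil surface at set doses in g/a. Herbicidal effect was scored on a rating scale three weeks later.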
# velvetleaf [20] = assay: as above; conditions: dose 3.2 g/a
# Procedure, shortened: as §4
# large crabgrass [21] = assay: as above; conditions: dose 3.2 g/a
# Procedure, shortened: as §4
# beadstraw [22] = assay: as above; conditions: dose 3.2 g/a
# Procedure, shortened: as §4
# barnyardgrass [23] = assay: as above; conditions: dose 3.2 g/a
# Procedure, shortened: as §4
# common chickweed [24] = assay: as above; conditions: dose 3.2 g/a
# Procedure, shortened: as §4
# common ragweed [25] = assay: as above; conditions: dose 3.2 g/a
# Procedure, shortened: as §4
# common lambsquater [26] = assay: as above; conditions: dose 3.2 g/a
# Procedure, shortened: as §4
# giant foxtail [27] = assay: as above; conditions: dose 3.2 g/a
# Procedure, shortened: as §4
# Italian ryegrass [28] = assay: as above; conditions: dose 3.2 g/a
# Procedure, shortened: as §4
# wild oat [29] = assay: as above; conditions: dose 3.2 g/a
# Procedure, shortened: as §4
# redroot pigweed [30] = assay: as above; conditions: dose 3.2 g/a
# Procedure, shortened: as §4
# [31] = three weeks after the application
compound,measurement,setting,value
CCCOC(=O)N(c1ccccc1CN1COC(C)(C)C(F)C1=O)S(=O)(=O)C(F)(F)F (stereo not shown) [II-35],"G: water foxtail, herbicidal effect",water foxtail [1]; three weeks after application,5 (mortality of 90% or above (nearly complete death))
same,"I: velvetleaf, herbicidal effect",velvetleaf [2]; three weeks after application,0 (mortality of less than 5% (almost ineffective))
same,"D: large crabgrass, herbicidal effect",large crabgrass [3]; three weeks after application,5 (mortality of 90% or above (nearly complete death))
same,"O: beadstraw, herbicidal effect",beadstraw [4]; three weeks after application,4 (mortality of at least 70% and less than 90%)
same,"A: barnyardgrass, herbicidal effect",barnyardgrass [5]; three weeks after application,5 (mortality of 90% or above (nearly complete death))
same,"N: common chickweed, herbicidal effect",common chickweed [6]; three weeks after application,3 (mortality of at least 40% and less than 70%)
same,"J: common ragweed, herbicidal effect",common ragweed [7]; three weeks after application,3 (mortality of at least 40% and less than 70%)
same,"L: common lambsquater, herbicidal effect",common lambsquater [8]; three weeks after application,1 (mortality of at least 5% and less than 20%)
same,"M: posumbu knotweed, herbicidal effect",posumbu knotweed; three weeks after application,3 (mortality of at least 40% and less than 70%)
same,"E: giant foxtail, herbicidal effect",giant foxtail [9]; three weeks after application,3 (mortality of at least 40% and less than 70%)
same,"H: Italian ryegrass, herbicidal effect",Italian ryegrass [10]; three weeks after application,4 (mortality of at least 70% and less than 90%)
same,"F: wild oat, herbicidal effect",wild oat [11]; three weeks after application,0 (mortality of less than 5% (almost ineffective))
same,"K: redroot pigweed, herbicidal effect",redroot pigweed [12]; three weeks after application,1 (mortality of at least 5% and less than 20%)
same,"B: bulrush, herbicidal effect (evaluation scale 0-5)",bulrush [13],5 (mortality of 90% or above (nearly complete death))
same,"C: ducksalad, herbicidal effect (evaluation scale 0-5)",ducksalad [14],5 (mortality of 90% or above (nearly complete death))
same,"A: barnyardgrass, herbicidal effect (evaluation scale 0-5)",barnyardgrass [15],5 (mortality of 90% or above (nearly complete death))
same,"B: bulrush, herbicidal effect (evaluation scale 0-5)",bulrush [16],5 (mortality of 90% or above (nearly complete death))
same,"C: ducksalad, herbicidal effect (evaluation scale 0-5)",ducksalad [17],5 (mortality of 90% or above (nearly complete death))
same,"A: barnyardgrass, herbicidal effect (evaluation scale 0-5)",barnyardgrass [18],5 (mortality of 90% or above (nearly complete death))
same,"a: transplanted rice, effect on crop (evaluation scale 0-5)",transplanted rice,0 (mortality of less than 5% (almost ineffective))
same,"G: water foxtail, herbicidal effect (evaluation scale 0-5)",water foxtail [19],5 (mortality of 90% or above (nearly complete death))
same,"I: velvetleaf, herbicidal effect (evaluation scale 0-5)",velvetleaf [20],3 (mortality of at least 40% and less than 70%)
same,"D: large crabgrass, herbicidal effect (evaluation scale 0-5)",large crabgrass [21],5 (mortality of 90% or above (nearly complete death))
same,"O: beadstraw, herbicidal effect (evaluation scale 0-5)",beadstraw [22],4 (mortality of at least 70% and less than 90%)
same,"A: barnyardgrass, herbicidal effect (evaluation scale 0-5)",barnyardgrass [23],5 (mortality of 90% or above (nearly complete death))
same,"N: common chickweed, herbicidal effect (evaluation scale 0-5)",common chickweed [24],1 (mortality of at least 5% and less than 20%)
same,"J: common ragweed, herbicidal effect (evaluation scale 0-5)",common ragweed [25],4 (mortality of at least 70% and less than 90%)
same,"L: common lambsquater, herbicidal effect (evaluation scale 0-5)",common lambsquater [26],0 (mortality of less than 5% (almost ineffective))
same,"E: giant foxtail, herbicidal effect (evaluation scale 0-5)",giant foxtail [27],3 (mortality of at least 40% and less than 70%)
same,"H: Italian ryegrass, herbicidal effect (evaluation scale 0-5)",Italian ryegrass [28],4 (mortality of at least 70% and less than 90%)
same,"F: wild oat, herbicidal effect (evaluation scale 0-5)",wild oat [29],3 (mortality of at least 40% and less than 70%)
same,"K: redroot pigweed, herbicidal effect (evaluation scale 0-5)",redroot pigweed [30],2 (mortality of at least 20% and less than 40%)
CCOC(=O)N(c1ccccc1CN1CSCCC1=O)S(=O)(=O)C(F)(F)F [II-79],"G: water foxtail, herbicidal effect",water foxtail [1]; [31],5 (mortality of 90% or above (nearly complete death))
same,"I: velvetleaf, herbicidal effect",velvetleaf [2]; [31],4 (mortality of at least 70% and less than 90%)
same,"D: large crabgrass, herbicidal effect",large crabgrass [3]; [31],4 (mortality of at least 70% and less than 90%)
same,"O: beadstraw, herbicidal effect",beadstraw [4]; [31],4 (mortality of at least 70% and less than 90%)
same,"A: barnyardgrass, herbicidal effect",barnyardgrass [5]; [31],5 (mortality of 90% or above (nearly complete death))
same,"N: common chickweed, herbicidal effect",common chickweed [6]; [31],4 (mortality of at least 70% and less than 90%)
same,"J: common ragweed, herbicidal effect",common ragweed [7]; [31],4 (mortality of at least 70% and less than 90%)
same,"L: common lambsquater, herbicidal effect",common lambsquater [8]; [31],3 (mortality of at least 40% and less than 70%)
same,"M: posumbu knotweed, herbicidal effect",posumbu knotweed; [31],4 (mortality of at least 70% and less than 90%)
same,"E: giant foxtail, herbicidal effect",giant foxtail [9]; [31],4 (mortality of at least 70% and less than 90%)
same,"H: Italian ryegrass, herbicidal effect",Italian ryegrass [10]; [31],3 (mortality of at least 40% and less than 70%)
same,"F: wild oat, herbicidal effect",wild oat [11]; [31],0 (mortality of less than 5% (almost ineffective))
same,"K: redroot pigweed, herbicidal effect",redroot pigweed [12]; [31],1 (mortality of at least 5% and less than 20%)
same,"B: bulrush, herbicidal effect (evaluation scale 0-5)",bulrush [13],5 (mortality of 90% or above (nearly complete death))
same,"C: ducksalad, herbicidal effect (evaluation scale 0-5)",ducksalad [14],5 (mortality of 90% or above (nearly complete death))
same,"A: barnyardgrass, herbicidal effect (evaluation scale 0-5)",barnyardgrass [15],5 (mortality of 90% or above (nearly complete death))
same,"B: bulrush, herbicidal effect (evaluation scale 0-5)",bulrush [16],5 (mortality of 90% or above (nearly complete death))
same,"C: ducksalad, herbicidal effect (evaluation scale 0-5)",ducksalad [17],5 (mortality of 90% or above (nearly complete death))
same,"A: barnyardgrass, herbicidal effect (evaluation scale 0-5)",barnyardgrass [18],5 (mortality of 90% or above (nearly complete death))
same,"a: transplanted rice, effect on crop (evaluation scale 0-5)",transplanted rice,0 (mortality of less than 5% (almost ineffective))
same,"herbicidal effect, G: water foxtail",water foxtail [19],5 (mortality of 90% or above (nearly complete death))
same,"herbicidal effect, I: velvetleaf",velvetleaf [20],5 (mortality of 90% or above (nearly complete death))
same,"herbicidal effect, D: large crabgrass",large crabgrass [21],5 (mortality of 90% or above (nearly complete death))
same,"herbicidal effect, O: beadstraw",beadstraw [22],0 (mortality of less than 5% (almost ineffective))
same,"herbicidal effect, A: barnyardgrass",barnyardgrass [23],5 (mortality of 90% or above (nearly complete death))
same,"herbicidal effect, N: common chickweed",common chickweed [24],4 (mortality of at least 70% and less than 90%)
same,"herbicidal effect, J: common ragweed",common ragweed [25],4 (mortality of at least 70% and less than 90%)
same,"herbicidal effect, L: common lambsquater",common lambsquater [26],3 (mortality of at least 40% and less than 70%)
same,"herbicidal effect, E: giant foxtail",giant foxtail [27],5 (mortality of 90% or above (nearly complete death))
same,"herbicidal effect, H: Italian ryegrass",Italian ryegrass [28],3 (mortality of at least 40% and less than 70%)
same,"herbicidal effect, F: wild oat",wild oat [29],0 (mortality of less than 5% (almost ineffective))
same,"herbicidal effect, K: redroot pigweed",redroot pigweed [30],2 (mortality of at least 20% and less than 40%)
